The source of these data is patent US20030235872A1, “Assay method” (priority 2002, published 2003).

Entries after “also recorded” stand apart in the source; their conditions may differ.

Data set [1] has as its system synthetic lipid mixtures (cholesterol: phospholipid SUV). Put plainly: Biosensor (surface plasmon resonance, BIAcore L1 chip) binding of Aβ to synthetic lipid mixtures. Also on record: KA1 (equilibrium association constant for high affinity binding component) / KA2 (equilibrium association constant of low-affinity binding component): unit not given here. The conditions noted are these: for extent of binding to the synthetic lipid mixture: 10 μM, cholesterol: phospholipid 60:40, compared with Aβ 1-28, FIG. 4; for KA1 (equilibrium association constant for high affinity binding component) / KA2 (equilibrium association constant of low-affinity binding component): competing reaction model. How it is done: Small 100 nm unilamellar vesicles (SUV), containing DMPC, DMPG, DMPS and DMPE, and cholesterol, were prepared in 0.02 M phosphate buffer (pH 6.8) by sonication and extraction. Briefly, 1.5 mg of total lipid was dissolved in 1.5 ml of CHCl3: MeOH (3:1, v/v). Aliquots (408 μl) were removed and evaporated under a stream of nitrogen, and the lipids further dried in vacuo overnight. The lipids were then resuspended in 600 μl of 0.02 M sodium phosphate buffer, pH 6.8. The resulting lipid dispersion was sonicated in a bath type sonicator until clear, and then extruded 17 times through 100 nm pore diameter polycarbonate filters using Liposofast apparatus (Avestin, Ottawa, Canada) to obtain 100 nm […]. The mixed lipid vesicles contained 80% (w/w), 60% (w/w), 40% (w/w), 30% (w/w) or 0% (w/w) cholesterol. The remaining lipid comprised a mixture of DMPC: DMPE: DMPS: DMPG in a ratio of 75:20:2.5:2.5 (by weight).
(§1) Binding experiments were carried out with a BIAcore X analytical system (Biacore, Uppsala, Sweden) using an L1 sensor chip (Biacore), as supplied by the manufacturer. It will be appreciated that other types of biosensor may also be used, preferably provided that the chip surface is such that the bound lipid material is able to retain a bilayer or monolayer structure. The running buffer used for all experiments was 0.02 M sodium phosphate buffer, pH 6.8 (phosphate buffer). The washing solution was 40 mM N-octyl β-D-glucopyranoside. The regeneration solution was 10 mM sodium hydroxide. All solutions were freshly prepared, degassed and filtered through a […] filter. The operating temperature was 25° C.
(§2) The alkyl surface of the L1 chip was cleaned by an injection of 25 μl of non-ionic 40 mM octyl glucoside at a flow rate of 5 μl/min. SUV (100 μl) or vascular SMC membranes (100 μl containing 0.33 mg protein) were then immediately applied to the chip surface at a low rate of 5 μl/min. To remove any multilamellar structures from the synthetic lipid surface, 30 μL of 10 mM sodium hydroxide was injected at a flow rate of […], resulting in a stable baseline corresponding to the successful formation of an immobilized layer of SUVs.
(§3) Peptide solutions were prepared at concentrations ranging from 0.5 to 10 μM. The solutions were injected over the lipid surface at a flow rate of 5 μl/min for 20 min. The peptide solution was then replaced by phosphate buffer and the peptide-membrane complex allowed to dissociate. The removal of the bound peptide and regeneration of the L1 chip surface, without removal of the synthetic lipid or vascular SMC membrane layer, was achieved by an injection of sodium hydroxide (30 μl, 10 mM) at a flow rate of 50 μl/min.
The amount of binding in response units (RU) was fitted by a simple one-to-one Langmuir reaction model (Morton et al., 1995):
or a competing reaction model (Karlsson and Falt, 1997):
using BIAevaluation 3.0 software (Biacore). The data obtained from five different binding experiments performed at five different concentrations of peptide were fitted globally to obtain the equilibrium association constant (KA). The accuracy of each fit was assessed by calculating a X^2 value for the data (Karlsson and Failt, 1997). A lower X^2 value was taken as an indication of a better fit of the data. […] Scatchard plots were generated using BIAevaluation 3.0 software (Biacore).
As previous studies have shown that Aβ can interact directly with lipid membranes, we examined the possibility that the toxic effects of Aβ were due to a direct interaction with the vascular SMC membrane. To study the binding of Aβ to lipids, biosensor technology was employed.
(In general: Surface plasmon resonance follows binding to a sensor surface in real time, without labels.)

The subject of data set [2] is vascular SMCs. The data set can be described thus: MTS assay of cytotoxicity of Aβ peptides against vascular smooth muscle cells. It counts as cell-based, rat. The note with it: 24 h, FIG. 1; for toxicity against vascular SMCs (MTS assay): peptide 10 μM; for toxicity against vascular SMCs after aging the peptide (MTS assay): peptide aged 5 days, 10 μM. How it is done:
(§4) Aβ 1-42, Aβ 1-40, Aβ 1-28, Aβ 17-42 and Aβ 29-42 were dissolved in dimethyl sulfoxide (DMSO) at a concentration of 2 mM. The peptide solutions were then sonicated (42 kHz) for 5 minutes, and centrifuged at 5,000 rpm for 1 minute at room temperature using a Hermle Z160M bench microfuge. Solubilised peptides were immediately snap-frozen and mixed on a vortex mixer for 15 seconds. The peptides were then diluted into DMEM for cell culture experiments, or in 0.02 M sodium phosphate buffer, pH 6.8 for biosensor experiments, to give a final concentration of 10 μM.
(§5) Vascular SMCs were plated at a density of 10^4 cells/well in a 96-well plate, or at a density of 10^6 cells/75 cm^2 cell culture flask (Nunc, Denmark) in 20 ml culture medium, and grown to 80% confluence, after which the medium was removed and replaced with fresh, serum-free medium with or without […] lovastatin.
The F3-(4,5-dimethylthiazol-2-yl)-5-(3-carboxymethoxyphenyl)-2(4-sulfophenyl)-2H-tetrazolium (MTS) reagent solution was added to the culture medium at a concentration of 10% (by volume).
To measure Aβ toxicity against vascular SMCs, cultures of cells were treated with Aβ peptides and analogues (10 μM) and the amount of toxicity determined using the MTS assay (Cory et al., 1991). […] Aging the peptides by incubation for 5 days caused a significant increase in toxicity. Previous studies (e.g., Pike et al., 1991) have shown that the aggregation of the Aβ into fibrils may be important for the generation of toxic species. The present results support this conclusion. […] In general, the amount of Aβ toxicity approximately correlated with the proportion of fibrillar species.

Data set [3] relates to vascular SMC membranes (plasma membrane-enriched fraction). Put plainly: Biosensor (surface plasmon resonance, BIAcore L1 chip) binding of Aβ to vascular SMC membranes. Set-up: species or system rat; KA1 (equilibrium association constant for high affinity binding component) / KA2 (equilibrium association constant of low-affinity binding component): unit not given here. The conditions noted are these: for KA1 (equilibrium association constant for high affinity binding component) / KA2 (equilibrium association constant of low-affinity binding component): competing reaction model; for binding to plasma membrane-enriched fraction from vascular smooth muscle cells: FIG. 6. How it is done: as §5
(§6) A crude plasma membrane preparation was prepared from vascular SMCs by differential centrifugation (Hubbard et al., 1983). Cells were scraped off 10×75 cm^2 flasks using a cell scraper, and centrifuged in DMEM at 3,000 rpm in a Beckman Coulter Allegra 21R centrifuge at 4° C. for 3 min. The pellet was then washed with phosphate-buffered saline (PBS), added to 10 ml of STM buffer (0.25 M sucrose/5 mM Tris-HCl, pH 7.4/1.0 mM MgCl2), and homogenized on ice using 10 up and down strokes in a 40 ml Dounce-type glass homogenizer with a loose-fitting pestle. The homogenate was centrifuged at 1,100 rpm for 5 min. The supernatant fraction was saved and the pellet rehomogenized in 5 ml of STM buffer. The suspension was again centrifuged, and the first and second supernatant fractions combined, then centrifuged at 40,000 rpm for 2 h (Beckman L8-M Ultracentrifuge, 70 Ti rotor, no brake) and the resulting crude plasma membrane fraction resuspended in 1.0 ml of 0.02 M sodium phosphate buffer, pH 7.4. Total membrane cholesterol was determined using the Amplex Red cholesterol assay kit (Molecular Probes, Eugene, Oreg., USA). The protein content of the membrane preparations was determined using the bicinchoninic acid (BCA) assay using bovine serum albumin as standard.
as §1, §2, §3

Data set [4] is described as follows: Congo Red assay of amyloid fibrils. It counts as physicochemical. The conditions noted are these: peptide aged 5 days, 10 μM; FIG. 2. The procedure: as §4
The concentration of amyloid fibrils was measured using the assay of Klunk et al. (1999). Aβ peptides were mixed with Congo red (CR) in 0.02 M sodium phosphate buffer, pH 6.8. The final concentration of peptide and CR was 10 μM. Solutions of CR alone were also prepared in 0.02 M sodium phosphate buffer, pH 6.8. The mixture was vortexed briefly and then incubated at room temperature for 15 min. The absorbances at 403 and 541 nm were measured using a BioRad SmartSpec 3000 spectrophotometer. Background absorbance values of buffer alone were subtracted from the values obtained from each sample. The concentration of Aβ fibrils in each preparation was then determined using the formula
All preparations were prepared in triplicate, and the assay was conducted independently three times, with similar results being obtained in each experiment.

Data set [5] concerns vascular SMC membrane cholesterol. Put plainly: Cholesterol and protein content of plasma membrane fraction from lovastatin-treated vascular SMCs. The conditions noted are these: cells pretreated with lovastatin 72 h; Amplex Red cholesterol assay. It counts as cell-based, rat. How it is done:
as §5
as §6, with “The suspension was again centrifuged, and the first and second supernatant fractions combined, then centrifuged at 40,000 rpm for 2 h (Beckman L8-M Ultracentrifuge, 70 Ti rotor, no brake) and the resulting crude plasma membrane fraction resuspended in 1.0 ml of 0.02 M sodium phosphate buffer, pH 7.4.” left out, “standard. […]” for “standard.”

The test system of data set [6] is vascular SMCs. Put plainly: Effect of lovastatin pretreatment on Aβ toxicity in vascular SMCs (MTS assay). The conditions noted are these: lovastatin pretreatment 72 h.
Setting [7] is: membranes from lovastatin-treated vascular SMCs (72 h).
Where [8] appears, read: membranes from untreated vascular SMCs.

On to “Aβ17-42: C-terminal Aβ fragment, residues 17-42 (LVFFAEDVGSNKGAIIGLMVGGVVIA; Amyloid-beta protein 42; UniProt P05067 688-713, looked up, fragment)”, for which the “extent of binding to the synthetic lipid mixture” value in data set [1] is given as “bound more strongly”. Also, the “toxicity against vascular SMCs (MTS assay)” value in the data set on vascular SMCs [2] is “significant toxicity”.
With “Aβ1-40: β-amyloid protein peptide, residues 1-40, made by manual solid-phase Boc synthesis”, the “KA1 (equilibrium association constant for high affinity binding component)” value is 4.1 × 10^4 in data set [3] (setting [7]); 8.3 × 10^5 in data set [3] (setting [8]); 1.1 × 10^5 in data set [1] (Cholesterol: PL ratio 30 : 70); 4.0 × 10^7 in data set [1] (Cholesterol: PL ratio 60 : 40); 4.8 × 10^7 in data set [1] (Cholesterol: PL ratio 80 : 20). The “KA2 (equilibrium association constant of low-affinity binding component)” value in data set [3] (setting [7]) is recorded as 3.6 × 10^4; in data set [3] (setting [8]), 5.9 × 10^5; in data set [1] (Cholesterol: PL ratio 30 : 70) it was 5.2 × 10^4; in data set [1] (Cholesterol: PL ratio 60 : 40) it was 1.3 × 10^6; in data set [1] (Cholesterol: PL ratio 80 : 20) it was 1.0 × 10^7. The “total amount of binding to SMC membrane fraction relative to synthetic lipid mixture containing 60% cholesterol and 40% phospholipid” value in data set [3] (peptide 10 μM) is given as “approximately 10%”. In addition, the “binding to plasma membrane-enriched fraction from vascular smooth muscle cells” value in data set [3] (peptide 10 μM) is listed as “bound to the membrane fraction”. Further, the “toxicity against vascular SMCs (MTS assay)” value in the data set on vascular SMCs [2] is on record as “significant toxicity”.
As to “Aβ1-28: N-terminal Aβ fragment, residues 1-28”, the “fibrillar species (Congo red binding assay)” value in data set [4] is “failed to form fibrils; also recorded: formed fewer fibrillar species”. Moreover, in the data set with vascular SMCs [2], the “toxicity against vascular SMCs (MTS assay)” value is “less toxic” and the “toxicity against vascular SMCs after aging the peptide (MTS assay)” value is given as “still toxic; also recorded: significantly less toxic”.
Turning to “Aβ29-42: C-terminal Aβ fragment, residues 29-42 (GAIIGLMVGGVVIA; Amyloid-beta protein 42; UniProt P05067 700-713, looked up, fragment)”, in data set [1], the “extent of binding to the synthetic lipid mixture” value is reported as “bound more strongly”. Further, the “toxicity against vascular SMCs (MTS assay)” value with vascular SMCs [2] is given as “significant toxicity”.
As to “Aβ1-42: β-amyloid protein peptide, residues 1-42, made by manual solid-phase Boc synthesis”, the “KA1 (equilibrium association constant for high affinity binding component)” value in data set [3] (setting [7]) is 9.3 × 10^4; in data set [3] (setting [8]) it was 1.8 × 10^6; in data set [1] (Cholesterol: PL ratio 30 : 70), 1.8 × 10^5; in data set [1] (Cholesterol: PL ratio 80 : 20), 2.7 × 10^8. Besides, the “KA2 (equilibrium association constant of low-affinity binding component)” value in data set [3] (setting [7]) is on record as 5.3 × 10^4; in data set [3] (setting [8]) it was 9.6 × 10^5; in data set [1] (Cholesterol: PL ratio 30 : 70), 6.9 × 10^4; in data set [1] (Cholesterol: PL ratio 60 : 40), 4.8 × 10^7; in data set [1] (Cholesterol: PL ratio 80 : 20) it was 6.9 × 10^7. In addition, the “binding to plasma membrane-enriched fraction from vascular smooth muscle cells” value in data set [3] (peptide 10 μM) is listed as “bound to the membrane fraction”. Moreover, in the data set on vascular SMCs [2], the “toxicity against vascular SMCs (MTS assay)” value is reported as “significant toxicity”. Further, the “toxicity against vascular SMCs after aging the peptide (MTS assay)” value with vascular SMCs [2] is given as “significant increase in cytotoxicity”.
For `CC[C@H](C)C(=O)O[C@H]1C[C@@H](C)C=C2C=C[C@H](C)[C@H](CC[C@@H]3C[C@@H](O)CC(=O)O3)[C@H]21` [lovastatin, Lovastatin], the “Aβ1-40 and Aβ1-42 binding to plasma membrane fraction of lovastatin-treated cells, relative to that without lovastatin pretreatment” value in data set [3] (cells pretreated with lovastatin 72 h, unaged Aβ 10 μM, RU20) is “approximately 25%”. Moreover, the “cholesterol content of the membrane fraction relative to untreated cells” value in data set [5] is given as “approximately 55%”. The “effect of lovastatin alone on the ability of vascular SMCs to reduce MTS” value in the data set with vascular SMCs [6] (no Aβ) was “little effect”. Besides, in the data set on vascular SMCs [6] (then unaged Aβ 10 μM 24 h, FIG. 7), the “reduction of the Aβ1-40 and Aβ1-42-induced decrease in MTS reduction in lovastatin-treated cells versus controls” value is 25-40%.
